# Reference: patent US20230242616A1, “CHEMOKINE-SELECTIVE CXCR4 ECTODOMAIN-DERIVED (POLY)PEPTIDE” (Ludwig-Maximilians-Universität München, priority 2020, published 2023)
# Values joined by “and” are separate entries in the source; they are usually repeats but may differ in a detail not shown here. Identical values can stand only once.
# Legend:
# mouse MIF = mouse MIF (Mus musculus, UniProt P34884); experiment: Dot blot with TAMRA-msR4M-L1, human versus mouse MIF; format: binding
# Method: Dot blot. […] Non-specific binding was blocked with Tris-buffered saline (TBS), pH 7.4, containing 0.1% Tween-20 (TBS-T) and 1% BSA. […] Fluorescence intensities were measured at 600 nm using an Odyssey® Fc imager (LICOR Biosciences, Bad Homburg, Germany). The total intensity of each spot was automatically corrected by the individual background signal.
# [1] = tested on: Apoe−/− mice with established plaques; experiment: Regression model of atherosclerosis; format: in vivo, mouse
# From the text: Control mice received saline. Mice were sacrificed after 9 weeks and vessel tissues prepared for plaque, cell, and macrophage staining. A. C, E, staining of aortic root sections with oil red O (ORO), hematoxylin eosin (HE), and anti-CD68, respectively. G, staining of aortic arch with HE. B, D, F, H, respective quantifications from 14 mice per group. Statistics: two-tailed, unpaired Mann-Whitney test; *, P<0.05; **, P<0.01.
# To further test the therapeutic applicability of msR4M-L1, an in vivo test in a “regression setting” was applied to mimic the patient situation, who is typically seen by a physician only when symptoms occur. The real-life situation is thus one in which preformed plaques already exist, when a patient starts treatment. A regression model therefore better mimics the situation in patient with pre-existing atherosclerotic disease.
# In a pilot study, atherogenic ApoE−/− mice were put on Western diet for 4.5 wks.
# Apoe−/− mice on HFD = experiment: In-vivo model of early atherosclerosis
# Method: Seven-eight-week-old female Apoe^−/− mice were randomly divided into two groups of 11-12 mice each and both groups put on a Western-type HFD (0.2% cholesterol) for 4.5 weeks. Mice develop early-to-intermediate atherosclerotic lesions in this model^39. […] At the end of the experiment, mice were sacrificed, blood collected by cardiac puncture and saved for blood cell and lipid measurements and mice transcardially perfused with saline. Hearts, proximal aortas and carotid arteries were prepared and fixed for plaque morphometry and lesion analysis.
# Quantification of plaques and vessel morphometry (oil red O and H&E staining). Cut heart tissue containing aortic root were embedded in optimum cutting temperature (OCT) (Sakura Finetek, Osaka, Japan) and frozen at −80° C. Eight-μm sections were prepared for oil-red O (ORO) staining and plaque immune cell analysis. The accumulation of macrophages in aortic root lesions was determined by an anti-MAC-2 antibody followed by Cy5-conjugated secondary antibody. Nuclei were visualized with DAPI. The aortic arch was cut, fixed in 4% paraformaldehyde (PFA) and embedded in paraffin. Ten-μm sections containing the three branches (brachiocephalic, left common carotid, and left subclavian artery) were prepared and stained with hematoxylin/eosin (HE) for vessel morphometry. Images were captured with a Leica DMi8 microscope and quantified using Image J.
# [2] = tested on: MonoMac-6 monocytes on human aortic endothelial cells (HAoECs); experiment: Static monocyte adhesion, MIF-induced; format: cell-based; settings: 16 nM MIF, 320 nM peptide
# Method: Static monocyte adhesion. HAoECs were seeded at a density of 30.000 cells/well in 6 well μ-Ibidi Perfusion slides VI 0.4 (Ibidi GmbH). […] After perfusion of the chambers with fresh medium, MonoMac6 cells (1×10^6 cells/mL) in PromoCell medium were added for 30 min. Non-adhering cells were flushed away by gentle perfusion using a 30 mL syringe. To quantify adherent monocytes, 10 individual images from each treatment were acquired using a Leica DMi8 inverted microscope with a 10× objective and cells quantified using Image J.
# [3] = tested on: primary mouse spleen B lymphocytes; experiment: Transwell chemotaxis of B cells elicited by MIF; format: cell-based; settings: 16 nM MIF
# Method: (§1) Chemotaxis analysis of murine B cells. A Transwell-based assay was used as described previously^34. Briefly, splenic B cells were isolated by negative depletion using a Pan B Cell Isolation Kit (Miltenyi Biotec. Bergisch Gladbach, Germany). Purity of the cells was between 95 and 99%. […] Chemotaxis was followed for 4 h at 37° C. in a humidified atmosphere of 5% CO2. Migrated cells were counted by flow cytometry using CountBright™ Absolute Counting Beads (Molecular Probes-Invitrogen).
# [4] = tested on: primary mouse spleen B lymphocytes; experiment: Transwell chemotaxis of B cells elicited by CXCL12; format: cell-based
# Method: as §1
smiles,measurement,setting,value
CC[C@H](C)[C@H](NC(=O)[C@H](Cc1ccc(O)cc1)NC(=O)[C@H](CCCNC(=N)N)NC(=O)[C@H](CC(=O)O)NC(=O)CCCCCCCCCCCNC(=O)CCCCCNC(=O)[C@H](CCCCN)NC(=O)[C@H](CS)NC(=O)[C@H](CC(C)C)NC(=O)[C@H](Cc1ccccc1)NC(=O)[C@H](CC(N)=O)NC(=O)CNC(=O)[C@H](Cc1ccccc1)NC(=O)[C@H](Cc1ccc(O)cc1)NC(=O)[C@H](Cc1c[nH]c2ccccc12)NC(=O)[C@H](CC(N)=O)NC(=O)[C@H](C)NC(=O)[C@@H](NC(=O)[C@H](C)NC(=O)[C@@H](N)CC(=O)O)C(C)C)C(=O)N[C@@H](CS)C(=O)N[C@@H](CC(=O)O)C(=O)N[C@@H](CCCNC(=N)N)C(=O)N[C@@H](Cc1ccccc1)C(=O)N[C@@H](Cc1ccc(O)cc1)C(=O)N1CCC[C@H]1C(=O)N[C@@H](CC(N)=O)C(=O)N[C@@H](CC(=O)O)C(=O)N[C@@H](CC(C)C)C(=O)N[C@@H](Cc1c[nH]c2ccccc12)C(=O)N[C@H](C(N)=O)C(C)C [msR4M-L1],binding to human versus mouse MIF on dot blot,mouse MIF,binds equally well to human and mouse MIF
same,"plaque load, pilot regression study","[1]; 4-5 mice per group, 50 μg/mouse, 3× per week",decreased plaque load (trend)
same,"atherosclerotic plaques (ORO and HE aortic root, HE aortic arch), regression study",[1]; 14 mice per group,leads to a regression of atherosclerotic plaques
same,"intralesional inflammation, CD68+ macrophage area",[1]; 14 mice per group,reduced
same,toxicity or side effects,Apoe−/− mice on HFD; 50 μg i.p. for 4.5 weeks,No toxicity or side effects were noted
same,number of lesional macrophages (MAC-2 staining),"Apoe−/− mice on HFD; 50 μg per mouse i.p., HFD 4.5 weeks",significantly decreased number of lesional macrophages
same,atherosclerotic lesion size in aortic arch and root,"Apoe−/− mice on HFD; 50 μg per mouse i.p., HFD 4.5 weeks, versus vehicle",significantly decreased
same,effect on MIF-induced static monocyte adhesion,[2],ablated the pro-adhesion effect of MIF
same,inhibition of MIF-mediated B-cell chemotaxis,[3],fully blocked
same,molar excess over MIF at maximal inhibition,[3],5 -fold molar excess
same,IC50,[3]; read-out: IC50 of MIF-mediated B-lymphocyte chemotaxis,10 nM and 10 to 15 nM
same,effect on CXCL12-elicited B-cell chemotaxis,[4],unable to inhibit chemotaxis elicited by CXCL12
